Experimental data published in US10849907B2, “Imidazopyridine derivatives and the use thereof as medicament” (Boehringer Ingelheim International GmbH, priority 2017, dated 2020).

Columns and labels:
NMDA NR1/NR2B receptor = biological target: T1, NMDA NR1/NR2B receptor (Homo sapiens, UniProt Q05586+Q13224); experiment: In vitro NMDA NR1/NR2b cell assay (FLIPR, intracellular calcium induced by glycine/glutamate); type: cell-based; conditions: HEK293 cells expressing NMDA NR1/NR2B, 20 μM glycine, 1 μM glutamate, compounds of the invention (Table 1)
T1 construct: host or cells: HEK293, tetracycline-inducible expression
Description: A human HEK293 cell line with tetracyclin-inducible expression of NMDA NR1/NR2B receptor was used as a test system for compound efficacy and potency. The cell line was purchased from ChanTest, Catalog # CT6121. Compound activity was determined by measuring the effect of compounds on intracellular calcium concentration induced by glycine/glutamate agonism in a FLIPRtetra system (Molecular Devices).
The cells were obtained as frozen cells in cryo-vials and stored until use at −150° C. Cells were grown in culture medium (DMEM/F12, 10% FBS, 5 μg/mL Blasticidin, 150 μg/mL Zeozin, 500 μg/mL Geneticin). […] For sub-culturing the cells were detached from flasks by Versene. For the assay, cells were detached, washed twice with induction medium (DMEM/F12 without glutamine, 10% FBS, 2 μg/mL Tetracycline, 2 mM Ketamine) and seeded to 384 well pure coat amine plates (BD 359324, 50000 cells per well in 50 μl) 48 h prior to assay in induction medium.
The test compounds were dissolved in 100% DMSO at a concentration of 10 mM and in a first step diluted in DMSO to a concentration of 5 mM, followed by serial dilution steps in 100% DMSO. Dilution factor and number of dilution steps may vary according to needs. Typically 8 different concentrations by 1:5 dilutions were prepared in duplicate, further intermediate dilutions (1:37.5) of the substances were carried out with aqueous assay buffer (137 mM NaCl, 4 mM KCl, 1.8 mM CaCl, 10 mM HEPES, 10 mM Glucose, pH 7.4) resulting in a compound concentration 3 times above the final test concentration and DMSO at 2.7% resulting in 0.9% final DMSO concentration in the assay.
At the assay day cells were washed 3× with assay puffer, 10 μL buffer remained in the wells after washing. 10 μL Ca kit loading buffer (AAT Bioquest) was added to the cells and the plates were incubated with lid for 60 minutes at r.t. 20 μl assay buffer containing 60 μM glycine (20 μM final) and 3 μM glutamate (1 μM final) was added to column 1-23. Fluorescence (indicating the calcium influx as a result of the NR1/NR2B ion channel activation) was read on the FLIPRtetra device for 60 seconds to monitor the glutamate induced effects. After 2 minutes 20 μL of compound or controls (row 1-22) in assay buffer were carefully added to the wells. […] The average of 2 measurements at 5 minutes and 5 min 10 seconds after compound addition is calculated and further used for IC50 calculations. Each assay microtiter plate contained wells (in column 23 or 24) with DMSO controls instead of compound as controls for glycine/glutamate induced fluorescence (high controls) and wells with 1 μM of a reference NR2b NAM as low controls (Compound 22; reference: Layton, Mark E et al, ACS Chemical Neuroscience 2011, 2(7), 352-362).
The output file of the reader contains the well number and measured average fluorescence units. For data evaluation and calculation, the measurement of the low control was set as 0% control and the measurement of the high control was set as 100% control. The IC50 values were calculated using the standard 4 parameter logistic regression formula. Calculation: [y=(a−d)/(1+(x/c)^b)+d], a=low value, d=high value; x=conc M; c=IC50 M; b=slope.

[1] = Metabolic stability in pooled human liver microsomes; type: in vitro ADME; conditions: pH 7.6; pooled human liver microsomes 1 mg/mL, 1 μM compound, 37° C., NADPH; read-out: Half-life - t½ human liver microsomes
Source text: Stability in human liver microsomes refers to the susceptibility of compounds to biotransformation in the context of selecting and/or designing drugs with favorable pharmacokinetic properties. The primary site of metabolism for many drugs is the liver. Human liver microsomes contain the cytochrome P450s (CYPs), and thus represent a model system for studying drug metabolization in vitro. Enhanced stability in human liver microsomes is associated with several advantages, including increased bioavailability and adequate half-life, which can enable lower and less frequent dosing of patients. Thus, enhanced stability in human liver microsomes is a favorable characteristic for compounds that are to be used for drugs.
The metabolic degradation of the test compound was assayed at 37° C. with pooled human liver microsomes. The final incubation volume of 60 μl per time point contains TRIS buffer pH 7.6 at room temperature (0.1 M), magnesium chloride (5 mM aqueous solution), microsomal protein (1 mg/mL for human) and the test compound at a final concentration of 1 μM. Following a short preincubation period at 37° C., the reactions were initiated by addition of betanicotinamide adenine dinucleotide phosphate, reduced form (NADPH, 1 mM), and terminated by transferring an aliquot into solvent after different time points. After centrifugation (10000 g, 5 min), an aliquot of the supernatant was assayed by LC-MS/MS for the amount of parent compound. The half-life was determined by the slope of the semi-logarithmic plot of the concentration-time profile.

human MDR1 (P-gp) = biological target: T2, human MDR1 (P-gp) (Homo sapiens, UniProt P08183); experiment: MDCK assay MDR-1 (p-GP): permeability across MDCK-MDR1 monolayers; type: in vitro ADME; conditions: for Papp A→B: MDCK-MDR1 monolayers, apical-to-basal, pH 7.4, 1 or 10 μM; for efflux ratio: pH 7.4, MDCK-MDR1, Papp (b-a) divided by Papp (a-b)
T2 construct: expressed in transfected cells; host or cells: MDCKII (Madin-Darby canine kidney) cells
Description: The MDCK assays provide information on the potential of a compound to pass the blood brain barrier. Permeability measurements across polarized, confluent MDCK-MDR1 cell monolayers grown on permeable filter supports are used as an in vitro absorption model: apparent permeability coefficients (PE) of the compounds across the MDCK-MDR1 cell monolayers are measured (pH 7.4, 37° C.) in apical-to-basal (AB) and basal-to-apical (BA) transport direction. The AB permeability (PEAB) represents drug absorption from the blood into the brain and the BA permeability (PEBA) drug efflux from the brain back into the blood via both, passive permeability as well as active transport mechanisms mediated by efflux and uptake transporters that are expressed on the MDCK-MDR1 cells, predominantly by the overexpressed human MDR1. Identical or similar permeabilities in both transport directions indicate passive permeation, vectorial permeability points to additional active transport mechanisms. Higher PEBA than PEAB (PEBA/PEAB >5) indicates the involvement of active efflux mediated by MDR1, which might compromise the goal to achieve sufficient brain exposure. Therefore, this assay provides valuable support for selection of compounds applicable for further in vivo testing. High permeability not limited by efflux at the blood brain barrier is a favourable characteristic for compounds that are to be used for drugs acting primarily in the CNS. Similar concepts are applicable to the MDCK BCRP assay and its interpretation; consequently, to ensure high permeability at the blood brain barrier, it is highly preferred to minimize the efflux (efflux <5) at both MDR1 and BCRP transporters.
Apparent permeability coefficients (Papp) of the compounds across the MDCK-MDR1 monolayers (MDCKII cells transfected with human MDR1 cDNA expression plasmid) are measured in apical-to-basal (AB) and basal-to-apical (BA) direction.
MDCK-MDR1 cells (6×10^5 cells/cm^2) are seeded on filter inserts (Corning, Transwell, polycarbonate, 0.4 μm pore size) and cultured for 9 to 10 days. Compounds dissolved in DMSO stock solution (1-20 mM) are diluted with HTP-4 aqueous buffer (128.13 mM NaCl, 5.36 mM KCl, 1 mM MgSO4, 1.8 mM CaCl2, 4.17 mM NaHCO3, 1.19 mM Na2HPO4, 0.41 mM NaH2PO4, 15 mM HEPES, 20 mM glucose, pH 7.4) supplemented with 0.25% BSA to prepare the transport solutions (final concentration: 1 or 10 μM, final DMSO <=0.5%). The transport solution is applied to the apical or basolateral donor side for measuring A-B or B-A permeability, respectively. The receiver side contains HTP-4 buffer supplemented with 0.25% BSA. Samples are collected at the start and end of experiment from the donor and at various time intervals for up to 2 hours also from the receiver side for concentration measurement by HPLC-MS/MS. Sampled receiver volumes are replaced with fresh receiver solution. Efflux ratio is calculated dividing the Papp (b-a) values by the Papp (a-b) values.

T2 sequence (P08183 whole entry): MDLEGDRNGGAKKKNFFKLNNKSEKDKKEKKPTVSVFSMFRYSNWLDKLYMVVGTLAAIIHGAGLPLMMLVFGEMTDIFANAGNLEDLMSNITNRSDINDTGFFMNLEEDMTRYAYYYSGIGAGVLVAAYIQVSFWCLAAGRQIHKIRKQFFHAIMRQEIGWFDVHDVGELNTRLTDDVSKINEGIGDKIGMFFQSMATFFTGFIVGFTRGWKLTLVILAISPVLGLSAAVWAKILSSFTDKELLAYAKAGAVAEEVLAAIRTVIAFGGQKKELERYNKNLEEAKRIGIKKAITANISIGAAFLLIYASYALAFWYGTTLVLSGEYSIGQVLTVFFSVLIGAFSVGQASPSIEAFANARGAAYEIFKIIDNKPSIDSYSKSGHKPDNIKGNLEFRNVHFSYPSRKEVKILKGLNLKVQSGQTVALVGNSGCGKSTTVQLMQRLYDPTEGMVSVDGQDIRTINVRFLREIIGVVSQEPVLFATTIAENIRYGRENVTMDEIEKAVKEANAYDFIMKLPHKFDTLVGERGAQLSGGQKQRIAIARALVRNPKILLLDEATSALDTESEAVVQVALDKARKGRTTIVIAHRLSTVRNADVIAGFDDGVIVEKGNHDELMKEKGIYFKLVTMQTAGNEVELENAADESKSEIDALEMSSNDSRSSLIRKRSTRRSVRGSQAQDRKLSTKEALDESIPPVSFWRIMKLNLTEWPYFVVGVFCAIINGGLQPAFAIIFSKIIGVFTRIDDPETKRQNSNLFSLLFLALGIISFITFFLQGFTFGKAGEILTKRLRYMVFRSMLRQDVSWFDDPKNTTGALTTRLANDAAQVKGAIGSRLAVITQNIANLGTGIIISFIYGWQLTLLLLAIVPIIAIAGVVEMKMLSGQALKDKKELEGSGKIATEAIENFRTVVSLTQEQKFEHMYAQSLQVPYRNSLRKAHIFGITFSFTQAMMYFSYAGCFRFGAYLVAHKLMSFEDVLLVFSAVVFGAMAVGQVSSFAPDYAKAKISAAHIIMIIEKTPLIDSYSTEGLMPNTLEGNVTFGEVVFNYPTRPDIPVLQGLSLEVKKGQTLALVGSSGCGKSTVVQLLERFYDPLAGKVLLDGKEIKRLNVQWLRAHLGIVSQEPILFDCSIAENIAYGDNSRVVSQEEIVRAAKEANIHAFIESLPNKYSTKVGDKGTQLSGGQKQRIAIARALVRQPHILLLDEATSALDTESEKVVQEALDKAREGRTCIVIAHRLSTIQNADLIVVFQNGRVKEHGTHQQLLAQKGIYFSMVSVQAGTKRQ
T1 sequence (Q13224 27-1484, other chains not shown): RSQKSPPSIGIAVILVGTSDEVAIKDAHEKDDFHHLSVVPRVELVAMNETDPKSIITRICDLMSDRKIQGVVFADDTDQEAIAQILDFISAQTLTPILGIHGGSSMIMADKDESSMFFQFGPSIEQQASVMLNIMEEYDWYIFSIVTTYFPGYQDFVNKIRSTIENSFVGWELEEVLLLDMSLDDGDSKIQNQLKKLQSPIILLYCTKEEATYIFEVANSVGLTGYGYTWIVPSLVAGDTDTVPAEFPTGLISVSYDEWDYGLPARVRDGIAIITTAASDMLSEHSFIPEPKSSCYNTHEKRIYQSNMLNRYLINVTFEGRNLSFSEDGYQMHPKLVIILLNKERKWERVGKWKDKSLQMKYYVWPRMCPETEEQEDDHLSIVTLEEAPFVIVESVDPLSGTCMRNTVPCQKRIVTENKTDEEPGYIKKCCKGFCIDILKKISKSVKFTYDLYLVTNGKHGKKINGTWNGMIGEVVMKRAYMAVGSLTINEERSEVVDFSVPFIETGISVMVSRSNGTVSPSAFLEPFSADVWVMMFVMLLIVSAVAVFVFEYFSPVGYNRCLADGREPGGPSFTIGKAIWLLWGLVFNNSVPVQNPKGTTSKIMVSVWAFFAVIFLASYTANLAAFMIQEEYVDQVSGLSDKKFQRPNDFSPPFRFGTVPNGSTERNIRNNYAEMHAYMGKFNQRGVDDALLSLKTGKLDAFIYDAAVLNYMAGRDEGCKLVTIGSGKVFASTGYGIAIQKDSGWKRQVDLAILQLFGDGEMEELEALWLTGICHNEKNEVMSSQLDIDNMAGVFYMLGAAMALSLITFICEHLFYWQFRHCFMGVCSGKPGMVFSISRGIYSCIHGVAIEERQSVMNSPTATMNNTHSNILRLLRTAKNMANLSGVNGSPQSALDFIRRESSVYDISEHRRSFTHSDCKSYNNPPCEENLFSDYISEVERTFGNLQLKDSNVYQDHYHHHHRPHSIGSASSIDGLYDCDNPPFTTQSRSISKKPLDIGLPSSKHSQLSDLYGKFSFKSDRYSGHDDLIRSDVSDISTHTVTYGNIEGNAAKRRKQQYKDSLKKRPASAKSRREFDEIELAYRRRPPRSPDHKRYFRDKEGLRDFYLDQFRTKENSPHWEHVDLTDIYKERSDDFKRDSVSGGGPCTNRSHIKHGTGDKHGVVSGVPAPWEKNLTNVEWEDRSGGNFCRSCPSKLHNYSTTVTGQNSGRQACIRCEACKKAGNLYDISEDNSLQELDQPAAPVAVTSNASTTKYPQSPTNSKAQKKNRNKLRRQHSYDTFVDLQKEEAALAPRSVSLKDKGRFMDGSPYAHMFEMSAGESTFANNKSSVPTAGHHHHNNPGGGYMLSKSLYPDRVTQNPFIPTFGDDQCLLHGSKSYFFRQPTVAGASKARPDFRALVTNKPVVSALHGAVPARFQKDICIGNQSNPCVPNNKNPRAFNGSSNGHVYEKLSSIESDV

| IC50 (NMDA NR1/NR2B receptor) [µM] | half-life at 1 µM [1] [min] | Papp A→B (human MDR1 (P-gp)) [×10⁻⁶ cm/s] | efflux ratio (human MDR1 (P-gp)) | Structure (SMILES) |
| --- | --- | --- | --- | --- |
| 0.228 | 24 | – | – | Cc1cc(F)ccc1COC(=O)N1CCO[C@H](c2nc3cccnc3[nH]2)C1 [Example 4] |
| 0.475 | 40 | 44.4 | 1.48 | Cc1ccnc2[nH]c([C@@H]3CN(C(=O)OCc4ccc(F)cc4)CCO3)nc12 [Example 6] |
| 0.293 | 22 | 49 | 1.16 | Cc1cccc(COC(=O)N2CCO[C@H](c3nc4cccnc4[nH]3)C2)c1 [Example 9] |
| 0.748 | – | – | – | O=C(OCc1ccc(F)c(F)c1)N1CCO[C@H](c2nc3cccnc3[nH]2)C1 [Example 24] |
| 0.477 | – | – | – | O=C(OCc1ccc(Cl)c(F)c1)N1CCO[C@H](c2nc3cccnc3[nH]2)C1 [Example 25] |
